Data from the supplement of paper PMC10307832.

What was measured:
Assay in all cases: relative viability (nuclei count vs DMSO), 5 days (fraction); higher = more cells survive
Daporinad + Dasatinib = compound: O=C(/C=C/c1cccnc1)NCCCCC1CCN(C(=O)c2ccccc2)CC1 [Daporinad] + Cc1nc(Nc2ncc(C(=O)Nc3c(C)cccc3Cl)s2)cc(N2CCN(CCO)CC2)n1 [Dasatinib] (partner 0.075 µM)
How it was run: (§1)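 Relative viability equals treated-well nuclei counts divided by vehicle-well nuclei counts. Counts came from 4× images of lung cancer cell lines grown in 1536-well plates for 5 days after pin-tool dosing on the day after seeding. Dosing used one drug alone or a fixed anchor-drug dose plus five library-drug doses (not always all listed) in √10 steps, and values are medians of duplicate plates.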

Daporinad + Pemetrexed = compound: O=C(/C=C/c1cccnc1)NCCCCC1CCN(C(=O)c2ccccc2)CC1 [Daporinad] + Nc1nc2[nH]cc(CCc3ccc(C(=O)N[C@@H](CCC(=O)O)C(=O)O)cc3)c2c(=O)[nH]1 [Pemetrexed] (partner 0.2 µM)
How it was run: as §1

Daporinad + Foretinib = compound: O=C(/C=C/c1cccnc1)NCCCCC1CCN(C(=O)c2ccccc2)CC1 [Daporinad] + COc1cc2c(Oc3ccc(NC(=O)C4(C(=O)Nc5ccc(F)cc5)CC4)cc3F)ccnc2cc1OCCCN1CCOCC1 [Foretinib] (partner 0.25 µM)
How it was run: as §1

R406 + Palbociclib = compound: COc1cc(Nc2ncc(F)c(Nc3ccc4c(n3)NC(=O)C(C)(C)O4)n2)cc(OC)c1OC [R406] + CC(=O)c1c(C)c2cnc(Nc3ccc(N4CCNCC4)cn3)nc2n(C2CCCC2)c1=O [Palbociclib] (partner 0.5 µM)
How it was run: as §1

With UMC-11 the relative viability (Daporinad + Dasatinib; first compound 0.0005 µM) was 0.486, the relative viability (Daporinad + Dasatinib; first compound 0.001581 µM) was 0.507 and the relative viability (Daporinad + Dasatinib; first compound 0.005 µM) was 0.394. The relative viability (Daporinad + Dasatinib; first compound 0.01581 µM) was 0.505, the relative viability (Daporinad + Pemetrexed; first compound 0.0005 µM) was 0.746 and the relative viability (Daporinad + Pemetrexed; first compound 0.001581 µM) was 0.83. For the same cell line, the relative viability (Daporinad + Pemetrexed; first compound 0.005 µM) was 0.847, the relative viability (Daporinad + Pemetrexed; first compound 0.01581 µM) was 0.773 and the relative viability (Daporinad + Foretinib; first compound 0.0005 µM) was 1.11. For the same cell line, the relative viability (Daporinad + Foretinib; first compound 0.001581 µM) was 1.05, the relative viability (Daporinad + Foretinib; first compound 0.005 µM) was 1.34 and the relative viability (Daporinad + Foretinib; first compound 0.01581 µM) was 1.22. It also gave a relative viability (R406 + Palbociclib; first compound 0.08 µM) of 0.314, a relative viability (R406 + Palbociclib; first compound 0.253 µM) of 0.339 and a relative viability (R406 + Palbociclib; first compound 0.8 µM) of 0.35. The relative viability (R406 + Palbociclib; first compound 2.53 µM) was 0.312 and the relative viability (R406 + Palbociclib; first compound 8 µM) was 0.239.
